According to patent US11033538B2, “Dosing regimens for the treatment of lysosomal storage diseases using pharmacological chaperones” (Amicus Therapeutics, Inc., priority 2007, dated 2021):
Several values for one entry are separate records, joined by “and”; a condition that tells them apart may be missing. Equal values may be shown once.

Key:
GL-3 [1] = assay: Example 8, GL-3 in tissues of transgenic mice expressing R301Q; format: in vivo; settings: 100 mg/kg ad libitum, four weeks
[2] = Phase Ib twice-daily dose study of DGJ in healthy volunteers, plasma and urine pharmacokinetics; format: in vivo, human
Experimental: Subjects were housed in the treatment facility from 14 hours prior to dosing until 24 hours after dosing. Meals were controlled by schedule and subjects remained abulatory for 4 hours post drug administration
Blood samples (10 mL each) were collected in blood collection tubes containing EDTA before dosing and at the following times thereafter: 0.25, 0.5, 0.75, 1, 1.5, 2, 3, 4, 5, 6, 7, 8, 9, 10, 11 and 12 hours. Blood samples were cooled in an ice bath and centrifuged under refrigeration as soon as possible. Plasma samples were divided into two aliquots and stored at […]. pending assay. At the end of the study, all samples were transferred to MDS Pharma Services Analytical Laboratories (Lincoln) for analysis.

Fabry patients = assay: Example 6, cardiac analysis; format: in vivo, human
Experimental: In addition to the biopsies described above, MRIs, electrocardiograms and echocardiograms with strain rate evaluations was performed at baseline and periodically throughout the study to assess cardiac morphology (e.g., left ventricular hyertrophy) and cardiac function (e.g., ejection fraction and conduction/rhythm abnormalities).

α-GAL = assay: Example 8, α-GAL activity in cell lines expressing Fabry missense mutations; format: cell-based
Source text: Cell lines were constructed to express one of 75 Fabry missense mutations. […] 20 of the 75 cell lines expressed a missense mutation corresponding to later-onset Fabry disease.

[3] = Example 13, tissue half-life of DGJ; format: in vivo, mice; settings: male, hR301Q GLA Tg/KO, mouse, oral; skin, heart, kidney; after 4 weeks 100 mg/kg/day
hR301Q GLA [4] = molecular target: T1, hR301Q GLA (Homo sapiens, UniProt P06280, R301Q); assay: Example 12, GLA activity and protein in tissues of hR301Q GLA Tg/KO mice; format: in vivo; settings: 4 weeks
T1 construct: from tissue; host or cells: skin, heart, kidney lysates of hR301Q GLA Tg/KO mice
T1 sequence (P06280 32-429 R301Q): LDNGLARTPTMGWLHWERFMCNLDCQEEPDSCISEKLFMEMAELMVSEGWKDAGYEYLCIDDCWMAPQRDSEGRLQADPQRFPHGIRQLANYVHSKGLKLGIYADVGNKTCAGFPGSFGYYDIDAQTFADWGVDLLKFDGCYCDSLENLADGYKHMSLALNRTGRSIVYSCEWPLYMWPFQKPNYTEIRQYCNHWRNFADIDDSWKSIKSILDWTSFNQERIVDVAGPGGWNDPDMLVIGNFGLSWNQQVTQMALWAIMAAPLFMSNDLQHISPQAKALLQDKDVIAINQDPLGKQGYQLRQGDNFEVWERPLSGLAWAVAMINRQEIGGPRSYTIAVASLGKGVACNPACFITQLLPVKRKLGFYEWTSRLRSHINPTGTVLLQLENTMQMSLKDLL
Experimental: Tissue lysates from skin, heart, and kidney were prepared and tested for GLA activity (using 4-MUG as substrate, expressed in nmol/mg protein/hr), GLA protein (using immunoblotting of […] tissue lysate with anti-human GLA antibody) and GL-3 levels (using LC-MS/MS, expressed in mg/g of tissue weight). […] Each bar represents the mean±SEM of n=7-8 mice/group. Each lane in the Western blots represents one mouse from each group.

hR301Q GLA [5] = molecular target: T1, hR301Q GLA; assay: Example 13, half-life of elevated hR301Q GLA after DGJ withdrawal; format: in vivo, mice; settings: after 4 weeks 100 mg/kg/day DGJ, washout; exponential decay curves
GL-3 [6] = assay: Example 6, kidney biopsy GL-3 histology; format: in vivo, human
Experimental: Four male patients received a single 150 mg Q.O.D for 12 weeks (Group B); while five male patients received 150 mg Q.O.D. for 24 weeks (Group C). Finally nine female patients were randomized to receive one of three dosages: 50, 150 or 250 mg Q.O.D for 12 weeks (Group D) (FIG. 8).
Kidney biopsies were performed at baseline, 12 weeks and 24 weeks post-treatment and evaluated for GL-3 deposits in various renal cells. GL-3 presence in the tissue was examined histologically as well as through the use of mass spectroscopy. Light microscopic analysis of kidney biopsies was performed, wherein the accumulation of GL-3 in the tissue was classified in a manner similar to the classification analysis performed in Kidney International, Vol. 62 (2002), pp. 1933-1946 which is hereby incorporated by reference. Cells were classified as containing no GL-3 accumulation (“0”); mild GL-3 accumulation (“1”); moderate GL-3 accumulation (“2”); or severe GL-3 accumulation (“3”).
Kidney GL-3 levels were assessed using histological and mass spectroscopic analysis. Kidney biopsies were examined in four of the “good” responders, two of the “moderate” responders, and two of the “non” responders. Accumulation of GL-3 was examined in three different kidney cell types: interstitial capillaries, distal tubules, and podocytes.

[7] = human, plasma, oral, 50 mg, 50 mg bid, Day 1
[8] = human, plasma, oral, 50 mg, 50 mg bid, Day 7
[9] = human, plasma, oral, 150 mg, 150 mg bid, Day 1
[10] = human, plasma, po, 150 mg, oral 150 mg DGJ hydrochloride

## OC[C@H]1NC[C@H](O)[C@@H](O)[C@H]1O [DGJ, (2R,3S,4R,5S)-2-(hydroxymethyl) piperdine-3,4,5-triol]
GL-3 [1]
  GL-3 aggregates, histology of renal tube and cardiac sections: presence of GL-3 aggregates was reduced
  concentration of GL-3 in the sampled tissues: reduced
[2]; 50 mg bid, Day 1
  12 h cumulative renal excretion: 16% and 16 ± 6%
[2]; 50 mg bid, Day 7
  12 h cumulative renal excretion: 48% and 48 ± 7%
  Cmin: 0.4 ± 0.03 µM
[2]; 50 mg to 150 mg
  dose dependence of Cmax: increased in a dose-proportional manner
[2]; 150 mg bid, Day 1
  12 h cumulative renal excretion: 42% and 42 ± 7%
[2]; 150 mg bid, Day 7
  12 h cumulative renal excretion: 60% and 60 ± 5%
  Cmax: 10.8 ± 1.4 µM
  Cmin: 1.2 ± 0.1 µM
[2]; all dose levels
  time of peak concentrations, on average: approximately 3 hours
[2]; healthy male volunteers
  oral availability: orally available
[2]; [7]
  Cmax: 2.3 ± 0.3 µM
  Tmax: 2.9 ± 0.4 h
[2]; [8]
  Cmax: 3.9 ± 0.5 µM
  Tmax: 2.5 ± 0.4 h
[2]; [9]
  Cmax: 11.3 ± 1.5 µM
  Tmax: 3.1 ± 0.4 h
[2]; human, plasma, oral, 150 mg, 150 mg bid, Day 7
  Tmax: 2.9 ± 0.4 h
[2]; human, plasma, oral, 50 mg bid, Day 1, read-out: t½ (converted)
  half-life: 2.5 h
[2]; human, plasma, oral, 150 mg bid, Day 1, read-out: t½ (converted)
  half-life: 2.4 h
[2]; [10]
  Cmax: 9 µM
  Tmax: 3 h
[2]; human, plasma, po, 150 mg, read-out: Half-life (exponential decay) (converted)
  half-life: 3 h
Fabry patients; 2 good responders with abnormally high left ventricle mass, 48 weeks
  left ventricle mass: no change in left ventricle mass
Fabry patients; one good responder with abnormally high left ventricle mass, 12 weeks
  decrease in left ventricle mass: 8%
Fabry patients; two of three good responders with abnormal ejection fraction before treatment
  ejection fraction following treatment: > 55%
α-GAL; 47 of the 75 cell lines
  cell lines in which DGJ enhanced α-GAL activity: 63%
α-GAL; classic Fabry mutations, 34 of 57 cell lines
  cell lines with increase in enzymatic activity: 60%
α-GAL; later-onset Fabry mutations, 19 of 20 cell lines
  cell lines with increase in α-GAL activity: 95%
[3]
  half-life: 6 to 7 h
hR301Q GLA [4]; 3, 10, 30, 100 or 300 mg/kg/day, p<0.05 vs. untreated
  GLA activity in skin, heart, kidney: significant and dose-dependent increase in GLA activity
hR301Q GLA [4]; 3-300 mg/kg/day
  GLA protein (immunoblotting): significant and dose-dependent increase
hR301Q GLA [5]
  half-life of elevated tissue hR301Q GLA levels: 48 to 60 h
GL-3 [6]; male good responders
  distal tubule GL-3 (histology): three of the good responders experienced a decrease in GL-3
  interstitial capillary GL-3 (histology): one patient displayed a decrease in interstitial capillary GL-3
  overall GL-3 levels in kidney biopsies: two of the good responders showed a decrease in GL-3
  podocyte GL-3 (histology): all four good responders experienced no change
GL-3 [6]; male moderate responders
  overall GL-3 levels in kidney biopsies: two patients showed a decrease in GL-3 levels
GL-3 [6]; male non-responders
  overall GL-3 levels in kidney biopsies: One non-responders showed a decrease in GL-3 levels
